# Source: US6262036A, “Method for inhibiting RNA translation using chimeric oligonucleoside compounds” (priority 2000, dated 2001)
# [mp] = methylphosphonate linkage
# Assays:
# [1] = system: complementary synthetic RNA target; experiment: Hybridization of chirally enriched and non-chiral oligomers to RNA targets (Example 32); type: binding; details: 1:1 with RNA, midpoint of sigmoidal transition at 260 nm
# Experimental: Chirally enriched all-pyrimidine (C*T)7 A and all-purine (A*G)7 T MP-oligomers were prepared using either Rp - or Sp -dimeric units. Control oligomers were also prepared using the individual monomeric units. The asterisks indicate the positions of defined chirality.
# Each oligomer was annealed to a complementary synthetic RNA target and then monitored by absorbance at 260 nm as a function of temperature. Sigmoidal transitions were observed corresponding to thermal denaturation of the hybridization complexes. The Tm values were determined at the midpoint of each sigmoidal transition. […] Thus, we anticipated that the data for each chirally enriched series would be applicable to double-stranded and triple-stranded MP/RNA helices, respectively.
# [2] = system: complementary RNA targets; experiment: Tm of Rp-enriched versus racemic methylphosphonate oligomers with RNA (Example 33); type: binding; details: 2.4 μM total strand concentration, pH 7.2, 100 mM sodium chloride
# [3] = system: complementary synthetic RNA targets; experiment: Binding stability of backbone modified (CT)7A oligomers to RNA (Example 34)
substance,measurement,setting,value
"2288-1: 5'-CT-CT-CT-CT-CT-CT-CT-A-3', racemic all-MP (CTCTCTCTCTCTCTA; all [mp], sugars by position and methylation of C not given here) [Oligomer 2288-1]","Tm (1:1, RNA)",[1],35.1 °C
same,Tm,[2],34.4 °C
same,TM,"[3]; 2.4 μM total strand concentration, pH 7.2, 100 mM sodium chloride",34.0 °C
same,K (37° C.) (binding constant KA),"[3]; 37° C., two-state model fit of thermal dissociation data",8.3 × 10^5
